Test results: patent US11730731B2 (INVENTAGE LAB INC., priority 2021, dated 2023)
Where a name gives a salt, the structure may show the parent alone.

Experiments:
[1] = tested on: pro-inflammatory cytokines (TNF-α, IL-1β, IL-6, IL-17, iNOS) in SW982 cells; experiment: RT-qPCR of LPS-induced pro-inflammatory cytokine expression in SW982 cells; conditions: LPS 1 ug/ml, 0.5, 1, 10, 100 uM, 6 hours
Excerpt: (§4) Lipopolysaccharide (LPS) was purchased from Sigma-Aldrich (St. Louis, Mo., USA).

[2] = tested on: MAPKs (ERK, JNK, p38); experiment: Western blotting of MAPKs activity in LPS-treated Raw 264.7 cells; type: cell-based, mouse; conditions: LPS 1 ug/ml, 0.5, 1, 10, 100 uM, 30 minutes
Experimental: (§1) Western blotting was performed in the same manner as in Example 6.3. The first antibody used at this time is an antibody against p-ERK, ERK, p-JNK, JNK, p-p38, p38 and calnexin (Cell signaling, CA, USA), and the secondary antibody is anti-mouse or anti-rabbit HRP-binding secondary antibody.
Western blotting was performed in the same manner as in Example 7.4.

[3] = tested on: MAPKs (ERK, JNK, p38); experiment: Western blotting of MAPKs activity in LPS-treated SW982 cells; type: cell-based, human; conditions: LPS 1 ug/ml, 0.5, 1, 10, 100 uM, 30 minutes, naltrexone effect at 1 uM
Experimental: as §1
(§2) 1× Cell lysis buffer (Cell signaling, CA, USA) was mixed with protease and a phosphatase inhibitor and added to SW982 cells. After extracting the protein from the cells, the concentration was measured, and the same amount of protein was developed on an SDS-polyacrylamide gel, and transferred to an ECL nitrocellulose membrane (Amersham Pharmacia Biotech, Inc., Piscataway, N.J., USA) and blocked with nonfat dried milk for 1 hour. Thereafter, the reaction was performed with the first antibody (p65 NF-κB, phospho p65 NF-κB, p-ERK, ERK, p-JNK, JNK, p-p38, p38 or calnexin; Cell signaling, CA, USA), while shaking at 4° C. for 24 hours. Then, after shaking and washing 3 times for 10 minutes with PBST buffer, the secondary antibody was incubated with anti-mouse or anti-rabbit HRP-conjugated secondary antibody for 1 hour at room temperature, and reacted with the protein band on the membrane using Supersignal west pico ECL solution (Thermo Fisher Scientific Inc.). The results were visualized with the Bio-Rad Gel Documentation system (Bio-Rad Laboratories, Hercules, Calif., USA), and the results are shown in FIG. 35.

[4] = tested on: p65 NF-κB; experiment: Western blotting of NF-κB activity in LPS-treated Raw 264.7 cells; type: cell-based, mouse; conditions: LPS 1 ug/ml, 0.5, 1, 10, 100 uM, 30 minutes
[5] = tested on: p65 NF-κB; experiment: Western blotting of NF-κB activity in LPS-treated SW982 cells; type: cell-based, human; conditions: LPS 1 ug/ml, 0.5, 1, 10, 100 uM, 30 minutes, naltrexone effect at 1 uM
Experimental: as §2, with “NF-κB” for “NF-κB, p-ERK, ERK, p-JNK, JNK, p-p38, p38”, “were” for “are”, “26.” for “35.”
as §2, with “The results were visualized with the Bio-Rad Gel Documentation system (Bio-Rad Laboratories, Hercules, Calif., USA), and the results are shown in FIG. 35.” left out

[6] = tested on: pro-inflammatory cytokines (TNF-α, IL-1β, IL-6, IL-17, iNOS) in Raw 264.7 cells; experiment: RT-qPCR of LPS-induced pro-inflammatory cytokine expression in Raw 264.7 cells; conditions: LPS 1 ug/ml, 0.5, 1, 10, 100 uM, 6 hours
Excerpt: as §4

[7] = tested on: experimental autoimmune encephalomyelitis (EAE); experiment: EAE clinical score in experimental autoimmune encephalomyelitis mice (multiple sclerosis model); type: in vivo; conditions: Example 5, EAE mouse; Q-DDS 1 mg/mouse sc once on day 3; Fytarex 3 mg/kg oral daily; Revia oral daily; mean±SEM
Experimental: As an experimental autoimmune encephalomyelitis mouse model (Mouse Experimental Autoimmune Encephalomyelitis: EAE), 6 to 10 week-old female mice of C57BL/6 strain were prepared.
Myelin-oligodendrocyte glycoprotein (MOG) was dissolved in phosphate-buffered saline (PBS) to be 1 mg/mL, and was emulsified by mixing at 1:1 (v/v) with 5 mg/mL Complete Freund's adjuvant. 100 μl of this was subcutaneously injected into both sides of the mouse, and then 400 μl of 2 pg/mL pertussis toxin was intraperitoneally injected (first immunization, day 0). On the second day, 400 μl of 2 μg/mL pertussis toxin was intraperitoneally injected a second time. On the third day after the first immunization, the test was performed by separating the experimental group.
Then, the occurrence and extent of clinical symptoms were regularly observed until the end of the experiment (The 30th day). The clinical symptom level was assigned a score of 0 to 5 after evaluating the functionality of the tail and four legs according to the criteria in Table 34 below, and was used as the EAE clinical score.

[8] = tested on: experimental autoimmune encephalomyelitis (EAE); experiment: Spinal cord histology, Luxol Fast Blue staining (demyelination score), EAE mice; type: in vivo, mouse
Experimental: (§3) After mouse euthanasia, spinal cord tissue was extracted, hematoxylin/eosin staining and Luxol Fast Blue staining were performed, and MBP-targeted immunohistochemical staining was performed, and histological evaluation was performed through blind evaluation.
On the 30th day which is the last day of the experiment, mouse was sacrificed, and the mouse spinal cord tissue was extracted and paraffin-embedded slides were prepared and then stained with Luxol Fast Blue, and the spinal cord tissue was photographed at 50 and 200 magnifications. In Luxol Fast Blue staining, myelin is stained from blue to green, and nerves are stained purple, and through this, the degree of demyelination was analyzed in the EAE model by confirming the neural structure in the spinal cord. Demyelination was analyzed according to the criteria described in Table 38 below and measured as a score.

[9] = tested on: experimental autoimmune encephalomyelitis (EAE); experiment: Spinal cord histology, hematoxylin/eosin staining (inflammation score), EAE mice; type: in vivo; conditions: day 30, spinal cord, Fytarex 3 mg/kg, Revia 1 mg/kg, Q-DDS 1 mg/mouse
Experimental: as §3
On the 30th day which is the last day of the experiment, mouse was sacrificed, and the mouse spinal cord tissue was extracted and paraffin-embedded slides were prepared and then stained with hematoxylin/eosin, and the spinal cord tissue was photographed at 50 and 200 magnifications. Then, histological scores were measured according to the histological evaluation criteria of Table 36 below to evaluate the distribution of inflammatory cells.

[10] = tested on: myelin basic protein (MBP); experiment: Immunohistochemistry staining of spinal cord with anti-myelin basic protein antibody, EAE mice; type: in vivo; conditions: day 30, spinal cord IHC, Fytarex 3 mg/kg, Revia 1 mg/kg, Q-DDS 1 mg/mouse
Experimental: as §3
On the 30th day which is the last day of the experiment, mouse was sacrificed, and the mouse spinal cord tissue was extracted and paraffin-embedded slides were prepared and then myelin basic protein (MBP) was stained immunohistochemically, and the spinal cord tissue was photographed at 50 and 200 magnifications. This is to confirm demyelination through immunohistochemical analysis using an antibody against myelin basic protein (MBP), a component of myelin.

## Oc1ccc2c3c1O[C@H]1[C@H](O)CC[C@@]4(O)[C@@H](C2)N(CC2CC2)CC[C@]314 [6β-naltrexol]
[1]
  expression of cytokines (iNOS, IL-1β, IL-6, TNF-α) induced by LPS: suppressed at all concentrations
[2]
  phosphorylation of MAPKs (ERK1/2, JNK, p38): no inhibitory effect
[3]
  phosphorylation of MAPKs (ERK1/2, JNK, p38) increased by LPS: no inhibitory effect
[4]
  p65 NF-κB phosphorylation increased by LPS: inhibited
[5]
  phosphorylation of p65 NF-κB increased by LPS: no inhibitory effect
[6]
  expression of cytokines (iNOS, IL-1β, IL-6, TNF-α) induced by LPS: suppressed at all concentrations

## CCCCCCCCc1ccc(CCC(N)(CO)CO)cc1 [Fytarex®, Fingolimod]
[7]
  EAE clinical score: 1.67±0.13

## O=C1CC[C@@]2(O)[C@H]3Cc4ccc(O)c5c4[C@@]2(CCN3CC2CC2)[C@H]1O5 [Revia ®]
[8]; EAE mice, day 30, spinal cord, Luxol Fast Blue, Fytarex 3 mg/kg, Revia 1 mg/kg, Q-DDS 1 mg/mouse
  Demyelination score (histological score), Mean: 0.61
[9]
  Inflammation score (histological score), Mean: 1.42
[10]
  MBP positive area/total spinal area, Mean: 58.23

## O=C1CC[C@@]2(O)[C@H]3Cc4ccc(O)c5c4[C@@]2(CCN3CC2CC2)[C@H]1O5 [Revia®, naltrexone hydrochloride]
[8]; Example 5, EAE mouse, day 30, Q-DDS 1 mg/mouse sc once, Fytarex and Revia oral daily, mean±SEM
  demyelination histological score (Luxol Fast Blue, spinal cord): decrease in histological score and demyelination
